Reference: ChEMBL document CHEMBL3259593, “Development of [(3)H]2-Carboxy-4,6-dichloro-1H-indole-3-propionic Acid ([(3)H]PSB-12150): A Useful Tool for Studying GPR17” (ACS Med Chem Lett, 2014)
Activity calls are given as the source filed them. The calls are words filed in the database; no cut-off is given here.

How the values were obtained:
[1] = molecular target: T1, Uracil nucleotide/cysteinyl leukotriene receptor (Homo sapiens, UniProt Q13304); assay: Displacement of [3H]PSB-12150 from human GPR17 expressed in CHO-K1 cell membranes at 100 uM after 60 mins by liquid scintillation counting
[2] = molecular target: T1, Uracil nucleotide/cysteinyl leukotriene receptor; assay: Displacement of [3H]PSB-12150 from human GPR17 expressed in CHO-K1 cell membranes after 60 mins by competition binding assay
[3] = molecular target: T1, Uracil nucleotide/cysteinyl leukotriene receptor; assay: Displacement of [3H]PSB-12150 from human GPR17 expressed in CHO-K1 cell membranes after 60 mins by homologous competition binding assay in presence of pranlukast
[4] = molecular target: T1, Uracil nucleotide/cysteinyl leukotriene receptor; conditions: CHO-K1, 100 uM
Description: Displacement of [3H]PSB-12150 from human GPR17 expressed in CHO-K1 cell membranes assessed as association half life at 100 uM by liquid scintillation counting

[5] = molecular target: T1, Uracil nucleotide/cysteinyl leukotriene receptor; conditions: CHO-K1, 100 uM; remark: listed apart in the source
Description: Displacement of [3H]PSB-12150 from human GPR17 expressed in CHO-K1 cell membranes assessed as dissociation half life at 100 uM treated after 1 hr incubation with radioligand by liquid scintillation counting

[6] = molecular target: T1, Uracil nucleotide/cysteinyl leukotriene receptor; assay: Displacement of [3H]PSB-12150 from human GPR17 expressed in CHO-K1 cell membranes up to 1 uM after 60 mins by liquid scintillation counting
[7] = molecular target: T1, Uracil nucleotide/cysteinyl leukotriene receptor; assay: biochemical
Description: Displacement of [3H]PSB-12150 from human GPR17 expressed in CHO-K1 cell membranes after 60 mins by heterologous competition binding assay

[8] = molecular target: T1, Uracil nucleotide/cysteinyl leukotriene receptor; assay: Displacement of [3H]PSB-12150 from human GPR17 expressed in CHO-K1 cell membranes up to 1 mM after 60 mins by liquid scintillation counting
[9] = molecular target: T1, Uracil nucleotide/cysteinyl leukotriene receptor; assay: Binding affinity to human GPR17 expressed in CHO-K1 cell membranes after 60 mins by saturation curve study

T1 sequence (Q13304 whole entry): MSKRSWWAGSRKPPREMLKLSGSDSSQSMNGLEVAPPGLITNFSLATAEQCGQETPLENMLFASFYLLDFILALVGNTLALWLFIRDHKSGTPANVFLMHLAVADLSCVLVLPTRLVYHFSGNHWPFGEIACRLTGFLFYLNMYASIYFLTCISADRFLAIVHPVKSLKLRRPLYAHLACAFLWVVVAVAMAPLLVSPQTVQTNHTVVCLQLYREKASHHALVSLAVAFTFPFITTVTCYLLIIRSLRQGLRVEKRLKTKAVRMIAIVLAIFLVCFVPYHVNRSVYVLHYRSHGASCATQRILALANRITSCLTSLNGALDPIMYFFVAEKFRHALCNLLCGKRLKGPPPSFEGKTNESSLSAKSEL

For `Nc1nc(=O)c2ncn([C@@H]3O[C@H](COP(=O)(O)OP(=O)(O)OP(=O)(O)O)[C@@H](O)C3O)c2[nH]1` (single isomer, unassigned), the Activity [1] was “Active”.

In the case of `O=C(O)CCc1c(C(=O)O)[nH]c2cc(Cl)cc(Cl)c12`, the Ki [2] is reported as 2.32 µM, the Ki [3] is reported as 1.21 µM and the T1/2 [4] is reported as 1.8 min. It also gave a T1/2 [5] of 0.3 min.

For `CCCCC/C=C\C\C=C/C=C/C=C/[C@@H](SCC(NC(=O)CC[C@H](N)C(=O)O)C(=O)NCC(=O)O)[C@@H](O)CCCC(=O)O` (single isomer, unassigned), the Activity [6] was “inactive”.

`O=C(Nc1cccc2c(=O)cc(-c3nnn[nH]3)oc12)c1ccc(OCCCCc2ccccc2)cc1` [PRANLUKAST] was tested, and the Ki [7] was 4.06 µM.

In the case of `O=c1ccn([C@@H]2O[C@H](COP(=O)(O)OP(=O)(O)O)[C@@H](O)[C@H]2O)c(=O)[nH]1`, the Activity [8] is reported as “inactive”.

For `Nc1ncnc2c1ncn2[C@@H]1O[C@H](COP(=O)(O)OP(=O)(O)OP(=O)(O)O)[C@@H](O)[C@H]1O`, the Activity [8] was “inactive”.

`CC(C)(O)c1ccccc1CC[C@@H](SCC1(CC(=O)O)CC1)c1cccc(/C=C/c2ccc3ccc(Cl)cc3n2)c1` [MONTELUKAST] was tested, and the Ki [7] was 6.54 µM.

`Nc1ncnc2c1ncn2[C@@H]1O[C@H](COP(=O)(O)OP(=O)(O)O)[C@@H](O)[C@H]1O` was tested, and the Activity [8] was “inactive”.

`[3H]C([3H])(C(=O)O)C([3H])([3H])c1c(C(=O)O)[nH]c2cc(Cl)cc(Cl)c12` was tested, and the Kd [9] was 1.26 µM.

For `O=C(/C=C/c1c(C(=O)O)[nH]c2cc(Cl)cc(Cl)c12)Nc1ccccc1` [GAVESTINEL], the Ki [7] was 1.63 µM.

With `O=c1ccn([C@@H]2O[C@H](COP(=O)(O)OP(=O)(O)OP(=O)(O)O)[C@@H](O)[C@H]2O)c(=O)[nH]1` the Activity [8] was “inactive”.
